# From ChEMBL document CHEMBL1125871, “Inhibitors of cholesterol biosynthesis. 4. trans-6-[2-(substituted-quinolinyl)ethenyl/ethyl]tetrahydro-4-hydroxy-2 H-pyran-2-ones, a novel series of HMG-CoA reductase inhibitors” (J Med Chem, 1991)
# Experiments:
# Rattus norvegicus [1] = species: Rattus norvegicus; test: Compound was tested for its Cholesterol Synthesis Inhibition ability in rats.; assay type: functional, organism-based
# Rattus norvegicus [2] = species: Rattus norvegicus; test: Compound was evaluated for the percentage of acute inhibition of cholesterol synthesis (AICS) in male rats through peroral rout.; assay type: functional; parameters: concentration or dose not given beside the values
# Rattus norvegicus [3] = species: Rattus norvegicus; test: (§1) Compound was tested for its relative Cholesterol Synthesis Inhibition as compared to compactin in rats.; assay type: functional
# [4] = target: T1, 3-hydroxy-3-methylglutaryl-coenzyme A reductase (Rattus norvegicus, UniProt P51639); test: Compound was evaluated for the inhibition of HMG-CoA reductase (COR) in rats.
# T1 sequence (P51639 whole entry): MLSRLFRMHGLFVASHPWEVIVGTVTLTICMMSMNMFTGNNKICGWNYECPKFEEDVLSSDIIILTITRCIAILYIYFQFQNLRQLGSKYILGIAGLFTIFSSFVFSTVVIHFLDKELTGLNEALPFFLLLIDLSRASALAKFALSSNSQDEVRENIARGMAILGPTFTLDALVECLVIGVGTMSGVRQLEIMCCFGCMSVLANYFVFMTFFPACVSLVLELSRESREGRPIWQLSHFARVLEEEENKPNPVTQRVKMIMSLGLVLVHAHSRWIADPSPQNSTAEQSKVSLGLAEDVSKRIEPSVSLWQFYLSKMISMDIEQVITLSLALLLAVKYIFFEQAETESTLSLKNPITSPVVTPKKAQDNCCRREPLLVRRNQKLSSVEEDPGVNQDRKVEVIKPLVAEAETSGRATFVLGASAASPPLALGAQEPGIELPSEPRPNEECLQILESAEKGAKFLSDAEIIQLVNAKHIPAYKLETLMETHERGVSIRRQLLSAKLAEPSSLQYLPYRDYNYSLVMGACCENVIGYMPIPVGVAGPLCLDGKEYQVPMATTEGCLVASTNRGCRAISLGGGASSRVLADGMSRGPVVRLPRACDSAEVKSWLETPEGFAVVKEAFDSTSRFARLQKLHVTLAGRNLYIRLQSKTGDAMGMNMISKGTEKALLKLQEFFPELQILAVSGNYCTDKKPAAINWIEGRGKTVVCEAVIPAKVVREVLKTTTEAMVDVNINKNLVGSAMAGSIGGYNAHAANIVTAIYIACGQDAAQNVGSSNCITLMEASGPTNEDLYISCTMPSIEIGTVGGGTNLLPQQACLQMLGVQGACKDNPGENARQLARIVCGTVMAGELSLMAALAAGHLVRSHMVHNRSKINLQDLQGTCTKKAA
# [5] = as §1; assay type: functional
Structure (SMILES),IC50 (Rattus norvegicus [1]) [nM],IC50 [4] [nM],Inhibition (Rattus norvegicus [2]) [%],Relative inhibition (Rattus norvegicus [3]),Relative inhibition [5]
Cc1cnc2ccccc2c1/C=C/[C@@H]1C[C@@H](O)CC(=O)O1,> 1000,–,42,<1,–
CN(C)c1nc2ccccc2c(-c2ccc(F)cc2)c1/C=C/[C@@H]1C[C@@H](O)CC(=O)O1,47,350,52,13.2,–
CC(C)c1nc2ccccc2c(-c2ccc(F)cc2)c1CC[C@@H]1C[C@@H](O)CC(=O)O1,> 1000,–,–,<1,–
CC(C)c1nc2ccccc2c(-c2ccc(F)cc2)c1/C=C/[C@@H]1C[C@@H](O)CC(=O)O1,42,32,70,75.8,–
Cc1nc2ccc(Cl)cc2c(-c2ccc(F)cc2)c1/C=C/[C@@H]1C[C@@H](O)CC(=O)O1,400,720,18,6.3,–
CC(C)c1nc2ccc(F)cc2c(-c2ccc(F)cc2)c1/C=C/[C@@H]1C[C@@H](O)CC(=O)O1 (stereo in doubt; 8d),50,200,68,77.6,–
CC(C)c1nc2ccc(F)cc2c(-c2ccc(F)cc2)c1/C=C/[C@@H]1C[C@@H](O)CC(=O)O1 (stereo in doubt; 17),–,–,69,–,–

# More lines, in order of falling IC50 (Rattus norvegicus [1]), values ahead:
IC50 (Rattus norvegicus [1]) [nM],IC50 [4] [nM],Structure (SMILES),Inhibition (Rattus norvegicus [2]) [%],Relative inhibition (Rattus norvegicus [3]),Relative inhibition [5]
32,25,CC(C)c1nc2ccc(Cl)cc2c(-c2ccc(F)cc2)c1/C=C/[C@@H]1C[C@@H](O)CC(=O)O1,61,100,–
30,–,CC[C@H](C)C(=O)O[C@H]1CCC=C2C=C[C@H](C)[C@H](CC[C@@H]3C[C@@H](O)CC(=O)O3)[C@H]21 [MEVASTATIN],36,–,–
25,28,CC[C@H](C)C(=O)O[C@H]1C[C@@H](C)C=C2C=C[C@H](C)[C@H](CC[C@@H]3C[C@@H](O)CC(=O)O3)[C@H]21 [LOVASTATIN],72,118,–
18,79,CC(C)c1c(/C=C/[C@@H]2C[C@@H](O)CC(=O)O2)c(-c2ccc(F)cc2)c2cc(F)ccc2[n+]1[O-],47,–,112
13,53,COc1ccc2nc(C(C)C)c(/C=C/[C@@H]3C[C@@H](O)CC(=O)O3)c(-c3ccc(F)cc3)c2c1,60,100,–
